Measured values from patent US10294202B2, “Pyrrolidinones as herbicides” (FMC Corporation, priority 2013, dated 2019).

Experiments:
[1] = system: pigweed, palmer; assay: Test E preemergence herbicide test; type: in vivo, Amaranthus palmeri; set-up: key: 0 = no effect, 100 = complete control
Source text: (§1) Seeds of plant species selected from corn (Zea mays), soybean (Glycine max), velvetleaf (Abutilon theophrasti), lambsquarters (Chenopodium album), wild poinsettia (Euphorbia heterophylla), pigweed, palmer (palmer pigweed, Amaranthus palmeri), waterhemp (common waterhemp, Amaranthus rudis), surinam grass (Brachiaria decumbens), crabgrass, large (large crabgrass, Digitaria sanguinalis), crabgrass, Brazil (Brazilian crabgrass, Digitaria horizontalis), panicum, fall (fall panicum, Panicum dichotomiflorum), foxtail, giant (giant foxtail, Setaria faberii), foxtail, green (green foxtail, Setaria viridis), goosegrass (Eleusine indica), johnsongrass (Sorghum halepense), ragweed (common ragweed, Ambrosia elatior), barnyardgrass (Echinochloa crus-galli), sandbur (southern sandbur, Cenchrus echinatus), arrowleaf […] rhombifolia), ryegrass, Italian (Italian ryegrass, Lolium multiflorum), dayflower, VA (Virginia dayflower, Commelina virginica), field bindweed (Convolvulus arvensis), morningglory (Ipomoea coccinea), nightshade (eastern black nightshade, Solanum ptycanthum), kochia (Kochia scoparia), nutsedge, yellow (yellow nutsedge, Cyperus esculentus), cocklebur (common cocklebur, Xanthium strumarium), smartweed (ladysthumb smartweed, Polygonum Persicaria) and beggarticks (hairy beggarticks, Bidens pilosa), were planted into a silt loam soil and treated preemergence with test chemicals formulated in a non-phytotoxic solvent mixture which included a surfactant. Treated plants and controls were maintained in a greenhouse for 21 days, after which time all species were compared to controls and visually evaluated. Plant response ratings, summarized in Table E, are based on a scale of 0 to 100 where 0 is no effect and 100 is complete control. A dash (-) response means no test result.

[2] = system: sandbur; assay: Test E preemergence herbicide test; type: in vivo, Cenchrus echinatus; set-up: key: 0 = no effect, 100 = complete control
Source text: as §1

[3] = system: arrowleaf sida; assay: Test E preemergence herbicide test; type: in vivo, Sida rhombifolia; set-up: key: 0 = no effect, 100 = complete control
Source text: as §1

[4] = system: ryegrass, Italian; assay: Test E preemergence herbicide test; type: in vivo, Lolium multiflorum; set-up: key: 0 = no effect, 100 = complete control
Source text: as §1

[5] = system: nutsedge, yellow; assay: Test E preemergence herbicide test; type: in vivo, Cyperus esculentus; set-up: key: 0 = no effect, 100 = complete control
Source text: as §1

[6] = system: cupgrass, woolly; assay: Test C pre-/postemergence herbicide test; type: in vivo, Eriochloa villosa; details: Postemergence
Source text: Seeds of plant species selected from blackgrass (Alopecurus myosuroides), ryegrass, Italian (Italian ryegrass, Lolium multiflorum), wheat (winter wheat, Triticum aestivum), galium (catchweed bedstraw, Galium aparine), corn (Zea mays), crabgrass, large (large crabgrass, Digitaria sanguinalis), foxtail, giant (giant foxtail, Setaria faberii), johnsongrass (Sorghum halepense), lambsquarters (Chenopodium album), morningglory (Ipomoea coccinea), nutsedge, yellow (yellow nutsedge, Cyperus esculentus), pigweed (Amaranthus retroflexus), ragweed (common ragweed, Ambrosia elatior), soybean (Glycine max), barnyardgrass (Echinochloa crus-galli), oilseed rape (Brassica napus), waterhemp (common waterhemp, Amaranthus rudis), kochia (Kochia scoparia), oat, wild (wild oat, Avena fatua), surinam grass (Brachiaria decumbens), foxtail, green (green foxtail, Setaria viridis), goosegrass (Eleusine indica), bromegrass, downy (downy bromegrass, Bromus tectorum), nightshade (eastern black nightshade, Solanum ptycanthum), cocklebur (common cocklebur, Xanthium strumarium), cupgrass, woolly (woolly cupgrass, Eriochloa villosa), bermudagrass (Cynodon dactylon), sunflower, (common oilseed sunflower, Helianthus annuus), Russian thistle (Salsola kali) and velvetleaf (Abutilon theophrasti) were planted into a blend of loam soil and sand and treated preemergence with test chemicals formulated in a non-phytotoxic solvent mixture which included a surfactant. At the same time, plants selected from these crop and weed species and also barley (winter barley, Hordeum vulgare), […]), chickweed (common chickweed, Stellaria media), deadnettle (henbit deadnettle, Lamium amplexicaule), and canarygrass (littleseed canarygrass, Phalaris minor) were planted in pots containing Redi-Earth® planting medium (Scotts Company, 14111 Scottslawn Road, Marysville, Ohio 43041) comprising spaghnum peat moss, vermiculite, wetting agent and starter nutrients and treated with postemergence applications of test chemicals formulated in the same manner. Plants ranged in height from 2 to 18 cm (1- to 4-leaf stage) for postemergence treatments. Treated plants and controls were maintained in a greenhouse for 13 to 15 days, after which time all species were compared to controls and visually evaluated. Plant response ratings, summarized in Table C, are based on a scale of 0 to 100 where 0 is no effect and 100 is complete control. A dash (-) response means no test result.

## O=C1NCC(c2ccc(OC(F)F)cc2)C1C(=O)Nc1cccc(F)c1F (racemic) [Compound 350]
[1]; 31 g ai/ha
  Plant response rating, Pigweed, Palmer: 0
[1]; 62 g ai/ha
  Plant response rating, Pigweed, Palmer: 0
[1]; 125 g ai/ha
  Plant response rating, Pigweed, Palmer: 35
[1]; 250 g ai/ha
  Plant response rating, Pigweed, Palmer: 35
[2]; 31 g ai/ha
  Plant response rating, Sandbur: 15
[2]; 62 g ai/ha
  Plant response rating, Sandbur: 35
[2]; 125 g ai/ha
  Plant response rating, Sandbur: 65
[2]; 250 g ai/ha
  Plant response rating, Sandbur: 85
[3]; 31 g ai/ha
  Plant response rating, Arrowleaf Sida: 0
[3]; 62 g ai/ha
  Plant response rating, Arrowleaf Sida: 0
[3]; 125 g ai/ha
  Plant response rating, Arrowleaf Sida: 20
[3]; 250 g ai/ha
  Plant response rating, Arrowleaf Sida: 50
[4]; 31 g ai/ha
  Plant response rating, Ryegrass, Italian: 0
[4]; 62 g ai/ha
  Plant response rating, Ryegrass, Italian: 25
[4]; 125 g ai/ha
  Plant response rating, Ryegrass, Italian: 20
[4]; 250 g ai/ha
  Plant response rating, Ryegrass, Italian: 35
[5]; 31 g ai/ha
  Plant response rating, Nutsedge, Yellow: 0
[5]; 62 g ai/ha
  Plant response rating, Nutsedge, Yellow: 0
[5]; 125 g ai/ha
  Plant response rating, Nutsedge, Yellow: 0
[5]; 250 g ai/ha
  Plant response rating, Nutsedge, Yellow: 15

## O=C1NCC(c2ccc(C(F)(F)F)cc2)C1C(=O)Nc1cccc(F)c1F (racemic) [Compound 202]
[1]; 31 g ai/ha
  Plant response rating, Pigweed, Palmer: 0
[1]; 62 g ai/ha
  Plant response rating, Pigweed, Palmer: 70
[1]; 125 g ai/ha
  Plant response rating, Pigweed, Palmer: 85
[1]; 250 g ai/ha
  Plant response rating, Pigweed, Palmer: 80
[2]; 31 g ai/ha
  Plant response rating, Sandbur: 35
[2]; 62 g ai/ha
  Plant response rating, Sandbur: 70
[2]; 125 g ai/ha
  Plant response rating, Sandbur: 85
[2]; 250 g ai/ha
  Plant response rating, Sandbur: 80
[3]; 31 g ai/ha
  Plant response rating, Arrowleaf Sida: 0
[3]; 62 g ai/ha
  Plant response rating, Arrowleaf Sida: 30
[3]; 125 g ai/ha
  Plant response rating, Arrowleaf Sida: 70
[3]; 250 g ai/ha
  Plant response rating, Arrowleaf Sida: 80
[4]; 31 g ai/ha
  Plant response rating, Ryegrass, Italian: 0
[4]; 62 g ai/ha
  Plant response rating, Ryegrass, Italian: 0
[4]; 125 g ai/ha
  Plant response rating, Ryegrass, Italian: 25
[4]; 250 g ai/ha
  Plant response rating, Ryegrass, Italian: 50
[5]; 31 g ai/ha
  Plant response rating, Nutsedge, Yellow: 0
[5]; 62 g ai/ha
  Plant response rating, Nutsedge, Yellow: 0
[5]; 125 g ai/ha
  Plant response rating, Nutsedge, Yellow: 0
[5]; 250 g ai/ha
  Plant response rating, Nutsedge, Yellow: 0

## O=C1NCC(c2cc(F)c(F)cc2F)C1C(=O)Nc1cccc(F)c1F (stereo not shown) [Compound 50]
[6]; 31 g ai/ha, scale 0 (no effect) to 100 (complete control)
  Plant response rating, Cupgrass, Woolly: 0
[6]; 62 g ai/ha, scale 0 to 100 (0 no effect, 100 complete control)
  Plant response rating, Cupgrass, Woolly: 0
[6]; 125 g ai/ha, scale 0 to 100 (0 no effect, 100 complete control)
  Plant response rating, Cupgrass, Woolly: 0
[6]; 250 g ai/ha, scale 0 to 100 (0 no effect, 100 complete control)
  Plant response rating, Cupgrass, Woolly: 10

## O=C1NC[C@H](c2cccc(C(F)(F)F)c2)[C@H]1C(=O)Nc1cccc(F)c1F [Compound 206]
[1]; 31 g ai/ha
  Plant response rating, Pigweed, Palmer: 0
[1]; 62 g ai/ha
  Plant response rating, Pigweed, Palmer: 0
[1]; 125 g ai/ha
  Plant response rating, Pigweed, Palmer: 0
[1]; 250 g ai/ha
  Plant response rating, Pigweed, Palmer: 0
[2]; 31 g ai/ha
  Plant response rating, Sandbur: 65
[2]; 62 g ai/ha
  Plant response rating, Sandbur: 80
[2]; 125 g ai/ha
  Plant response rating, Sandbur: 95
[2]; 250 g ai/ha
  Plant response rating, Sandbur: 98
[3]; 31 g ai/ha
  Plant response rating, Arrowleaf Sida: 0
[3]; 62 g ai/ha
  Plant response rating, Arrowleaf Sida: 0
[3]; 125 g ai/ha
  Plant response rating, Arrowleaf Sida: 10
[3]; 250 g ai/ha
  Plant response rating, Arrowleaf Sida: 50
[4]; 31 g ai/ha
  Plant response rating, Ryegrass, Italian: 0
[4]; 62 g ai/ha
  Plant response rating, Ryegrass, Italian: 35
[4]; 125 g ai/ha
  Plant response rating, Ryegrass, Italian: 80
[4]; 250 g ai/ha
  Plant response rating, Ryegrass, Italian: 65
[5]; 31 g ai/ha
  Plant response rating, Nutsedge, Yellow: 15
[5]; 62 g ai/ha
  Plant response rating, Nutsedge, Yellow: 15
[5]; 125 g ai/ha
  Plant response rating, Nutsedge, Yellow: 20
[5]; 250 g ai/ha
  Plant response rating, Nutsedge, Yellow: 75
